Assay [1] relates to ob/ob mice. The experiment in a line: Long-term isoproterenol treatment of ob/ob mice. It is filed as in vivo, mouse. The procedure:
Wildtype (C57BL/6J) and mutant (C57BL/6J A^y/a, C57BL/6J ob/ob) mice were obtained from the Jackson laboratory and adrenal medullectomized mice from Harlan Tecklad laboratory. Dbh−/− mice were rescued as previously described (Thomas et al., 1998, Neurochem 70:2468-2476). […] Propranolol (Sigma) was added to the drinking water at a concentration of 0.5 g/l. For ICV infusion, a 28-gauge cannula (Brain infusion kit II, Alza) was implanted into the third ventricle as previously described infusing human leptin (Sigma) at 8 ng/hr or MT-II at 125 ng/hr (Phoenix Pharmaceuticals) for 28 days (see, e.g., Ducy et al., 2000, Cell 100: 197-207). The cannula was connected to an osmotic pump (Alza) placed in the dorsal subcutaneous space of the animal. For parabiosis longitudinal incisions were made in the skin and in the peritoneal cavity along one side on each mouse. Edges of the incisions were connected by suture to induce coelioanastomosis. Cross-circulation was quantified by injecting 1 ml/kg 0.25% Evans blue into the tail vein of one mouse of the parabiosed pair. After 30 min. blood was collected from both mice by retroorbital bleeding and the blood exchange rate was calculated according to standard techniques (see, e.g., Harris & Martin, 1984, Am J Physiol 247:R380-386). […] Two weeks after parabiosis a pump delivering leptin ICV in one animal of each pair was implanted. For GTG lesioning, 4-week-old C57BL/6J mice were given a single ip injection of either PBS or GTG (0.5 mg/g). For MSG lesioning, 2 day-old C57BL/6J pups were injected daily subcutaneously with either PBS or MSG (2 mg/g) for 10 days.
Histological analyses were performed on undecalcified sections stained by von Kossa and counterstained by von Gieson (see, e.g., Ducy et al., 2000, Cell 100:197-207). Static and dynamic histomorphometric analyses were performed according to standard protocols (see, e.g., Parfitt et al., 1987, J Bone Miner Res 6:595-610) using the Osteomeasure Analysis System (Osteometrics, Atlanta). Six to 12 animals were analyzed for each group. Statistical significance was assessed by Student's t test.
(§1) Primary osteoblast cultures were established as previously described (see, e.g., Ducy et al., 2000, Cell 100: 197-207) and maintained in αMEM/0.1 mg/ml ascorbic acid supplemented with 10% FBS. SaOS-2 were grown in MEM/10% FBS. For cAMP assay confluent cultures were incubated with serum free medium containing 100 μM IBMX (3-isobutyl-1-methylxanthine, Sigma) for 8 minutes before PBS, PTH(1-34) (Bachem), isoproterenol, norepinephrine, phenylephrine (Sigma) or propranolol were added for 5 min. Intracellular cAMP concentration was measured by immunoassay (R&D Systems). For gene expression analyses, primary osteoblasts were treated for 72 hours with appropriate drugs in 0.1% FBS. Hormone serum levels were quantified using immunoassays kits from Peninsula Laboratories (Insulin) or Alpco Diagnostics (leptin). Deoxypyridinoline cross-links and Creatinine were measured in morning urines using the Quidel kits. a1(I) leptin bioactivity was verified by cotransfection of 293 cells expressing ObRb with a STAT3-responsive-luc reporter construct, pSVβgal plasmid and a1(I) leptin expression vector or mock. Twenty-four hours later luciferase and β-galactosidase activities were measured. Data represents ratios of luciferase/β-galactosidase activities, and values are mean of 6 independent transfection experiments.
To address this point one month-old ob/ob mice were treated for 6 weeks with the β-adrenergic agonist isoproterenol or vehicle.

In assay [2] the test system is human SaOS-2 osteoblastic cells. The experiment in a line: cAMP production in human SaOS-2 osteoblastic cells. It is filed as cell-based. Particulars: SaOS-2, 100 μM IBMX, 5 min treatment. The procedure: as §1
For a sympathetic regulation of bone formation to exist several requirements have to be fulfilled. The first one is that functional adrenergic receptors are present on osteoblasts. […] No other adrenergic receptor subtype could be detected. […] Thus, to assess the biologic relevance of the presence of β2-adrenergic receptors on osteoblasts, these cells were treated with isoproterenol, a β-adrenergic agonist, alone or in the presence of propranolol, a β-adrenergic receptor antagonist; with norepinephrine, the natural ligand of β-adrenergic receptors; with phenylephrine, an α-adrenergic agonist or with vehicle and measured cAMP production. […]
In general terms: Cyclic AMP is a second messenger, typically raised through Gs and lowered through Gi signalling.

Assay [3] has as its system A^y/a mice. Put plainly: Leptin ICV infusion in A^y/a mice. It is filed as in vivo, mouse. Here is the method:
Wildtype (C57BL/6J) and mutant (C57BL/6J A^y/a, C57BL/6J ob/ob) mice were obtained from the Jackson laboratory and adrenal medullectomized mice from Harlan Tecklad laboratory. Dbh−/− mice were rescued as previously described (Thomas et al., 1998, Neurochem 70:2468-2476). Isoproterenol (Sigma) was injected intraperitoneally (ip) once daily for 6 weeks at 30 mg/kg (wt) or 3 mg/kg (ob/ob). Propranolol (Sigma) was added to the drinking water at a concentration of 0.5 g/l. For ICV infusion, a 28-gauge cannula (Brain infusion kit II, Alza) was implanted into the third ventricle as previously described infusing human leptin (Sigma) at 8 ng/hr or MT-II at 125 ng/hr (Phoenix Pharmaceuticals) for 28 days (see, e.g., Ducy et al., 2000, Cell 100: 197-207). The cannula was connected to an osmotic pump (Alza) placed in the dorsal subcutaneous space of the animal. For parabiosis longitudinal incisions were made in the skin and in the peritoneal cavity along one side on each mouse. Edges of the incisions were connected by suture to induce coelioanastomosis. Cross-circulation was quantified by injecting 1 ml/kg 0.25% Evans blue into the tail vein of one mouse of the parabiosed pair. After 30 min. blood was collected from both mice by retroorbital bleeding and the blood exchange rate was calculated according to standard techniques (see, e.g., Harris & Martin, 1984, Am J Physiol 247:R380-386). […] Two weeks after parabiosis a pump delivering leptin ICV in one animal of each pair was implanted. For GTG lesioning, 4-week-old C57BL/6J mice were given a single ip injection of either PBS or GTG (0.5 mg/g). For MSG lesioning, 2 day-old C57BL/6J pups were injected daily subcutaneously with either PBS or MSG (2 mg/g) for 10 days.

[4] abbreviates: ob/ob mice, 3 mg/kg/day, 6 weeks.

Entries after “also recorded” stand apart in the source; their conditions may differ.

For `CC(C)NCC(O)c1ccc(O)c(O)c1` (stereo not drawn) [isoproterenol], the “Bone Volume” value in assay [1] (ob/ob + isoproterenol) is “Low”. In assay [1] (ob/ob mice), the “expression of uncoupling protein 1 (Ucp1) in brown adipose tissue” value is on record as “increased”. Also, in assay [1] (setting [4]), the bone formation rate result is given as “marked decrease”, the bone resorption parameters entry is on record as “unaffected” and the “number of osteoblasts per bone surface” value is given as “marked decrease”. Moreover, the “bone mass and bone formation parameters compared with 3 mg/kg/day” value in assay [1] (ob/ob mice, 10 mg/kg/day) is reported as “Identical results”. In addition, in assay [1] (ob/ob mice, 3 and 10 mg/kg/day), the body weight result is on record as “without affecting”. For the same molecule, the “bone mass in the vertebrae and long bones” value in assay [1] (one month-old ob/ob mice, 3 mg/kg/day ip, 6 weeks) is listed as “massive bone loss”. Further, the cAMP production entry in assay [2] is given as “induced”.

B1: leptin: polypeptide hormone, product of the ob gene; human leptin (Sigma) infused ICV (protein)
chain: VPIQKVQDDTKTLIKTIVTRINDISHTQSVSAKQRVTGLDFIPGLHPILSLSKMDQTLAVYQQVLTSLPSQNVLQIANDLENLRDLLHLLAFSKSCSLPQTSGLQKPESLDGVLEASLYSTEVVALSRLQGSLQDILQQLDVSPEC
As for B1, in assay [3] (ICV infusion), the body weight result is on record as “without affecting”. Moreover, in assay [3] (long-term ICV infusion), the bone formation rate result is given as “decrease” and the “bone mass / bone volume” value was “significant decrease; also recorded: decreased”.

Values taken from patent publication US20060165683A1, “Methods and compositions for control of bone formation via modulation of sympathetic tone” (priority 2001, published 2006).
